Laboratory results: patent US10092551B2, “Spiro-thiazolones” (Hoffmann-La Roche Inc., priority 2014, dated 2018)

The molecules below were run against human V1a receptor (Homo sapiens (Human), UniProt P37288) (assay: human V1a receptor binding studies (3H-Vasopressin, SPA beads)). Conditions: membranes of HEK293 cells transiently transfected with human V1a receptor, Ki by Cheng-Prussoff.
Outline: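 Membranes from HEK293 cells transiently expressing cloned human V1a receptor, bound on yttrium silicate SPA beads with 4 nM 3H-vasopressin (added stock) and serially diluted compound, 1 h at room temperature. Non-specific binding defined with cold vasopressin; IC50 by non-linear regression, Ki via Cheng-Prusoff.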

Sequence of human V1a receptor (P37288 whole entry): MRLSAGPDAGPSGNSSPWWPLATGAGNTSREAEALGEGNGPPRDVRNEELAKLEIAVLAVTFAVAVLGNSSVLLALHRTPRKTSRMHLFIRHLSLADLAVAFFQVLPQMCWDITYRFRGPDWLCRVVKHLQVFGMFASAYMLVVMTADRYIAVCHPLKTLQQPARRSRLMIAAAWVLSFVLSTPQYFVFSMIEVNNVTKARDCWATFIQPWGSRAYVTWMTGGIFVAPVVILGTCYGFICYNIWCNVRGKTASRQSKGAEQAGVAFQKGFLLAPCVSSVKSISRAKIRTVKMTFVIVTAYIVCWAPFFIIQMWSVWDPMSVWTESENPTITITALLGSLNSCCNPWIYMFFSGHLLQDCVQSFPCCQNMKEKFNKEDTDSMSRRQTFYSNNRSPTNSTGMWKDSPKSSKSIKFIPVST

Question: Which “pKi hV1a” value does the source give for `O=C1N=C(N2CCC3(CC2)OCc2ccccc23)S/C1=C1/CCc2ccccc21` [Example 46, (5Z)-5-(2,3-dihydro-1H-inden-1-ylidene)-2-(1′H,3H-spiro[2-benzofuran-1,4′-piperidin]-1′-yl)-1,3-thiazol-4(5H)-one] here?
Answer: Its value is 8.3.

Question: For `C/C(=C1\SC(N2CCC3(CC2)OCc2ccccc23)=NC1=O)c1ccccc1F` [Example 56, (5E)-5-[1-(2-fluorophenyl)ethylidene]-2-(1′H,3H-spiro[2-benzofuran-1,4′-piperidin]-1′-yl)-1,3-thiazol-4(5H)-one], which “pKi hV1a” value is on record?
Answer: Its value is 8.3.

Question: `O=C1N=C(N2CCC3(CC2)OCc2ccccc23)SC1=C(CCl)CCl` [Example 113, 5-(1,3-dichloropropan-2-ylidene)-2-(1′H,3H-spiro[2-benzofuran-1,4′-piperidin]-1′-yl)-1,3-thiazol-4(5H)-one] was tested. Which “pKi hV1a” value did it give?
Answer: The value was 7.0.

Question: For `O=C1N=C(N2CCC3(CC2)OCc2ccccc23)S/C1=C\c1ccc(Cl)cc1` [Example 8, (5Z)-5-(4-chlorobenzylidene)-2-(1′H,3H-spiro[2-benzofuran-1,4′-piperidin]-1′-yl)-1,3-thiazol-4(5H)-one], which “pKi hV1a” value is on record?
Answer: The value was 7.8.

Question: With `CC(C)(C)OC(=O)N1CCC/C(=C2/SC(N3CCC4(CC3)OCc3ccccc34)=NC2=O)C1` [Example 88, tert-butyl (3E/Z)-3-[4-oxo-2-(1′H,3H-spiro[2-benzofuran-1,4′-piperidin]-1′-yl)-1,3-thiazol-5(4H)-ylidene]piperidine-1-carboxylate] as the molecule, how does the “pKi hV1a” value read?
Answer: The value was 6.7.

Question: How did the “pKi hV1a” value turn out when `O=C1N=C(N2CCC3(CC2)OCc2ccccc23)SC1=C(c1ccccc1)c1ccccc1` [Example 82, 5-(diphenylmethylidene)-2-(1′H,3H-spiro[2-benzofuran-1,4′-piperidin]-1′-yl)-1,3-thiazol-4(5H)-one] was run?
Answer: The value was 8.4.

Question: For `O=C1N=C(N2CCC3(CC2)OCc2ccccc23)S/C1=C(/CO)c1ccccc1` [Example 124, (5E)-5-(2-hydroxy-1-phenylethylidene)-2-(1′H,3H-spiro[2-benzofuran-1,4′-piperidin]-1′-yl)-1,3-thiazol-4(5H)-one], which “pKi hV1a” value is on record?
Answer: Its value is 9.3.

Question: Which “pKi hV1a” value does the source give for `O=C1N=C(N2CCC3(CC2)OCc2ccccc23)S/C1=C(\CO)c1ccccc1` [Example 127, (5Z)-5-(2-hydroxy-1-phenylethylidene)-2-(1′H,3H-spiro[2-benzofuran-1,4′-piperidin]-1′-yl)-1,3-thiazol-4(5H)-one] here?
Answer: The value was 9.0.

Question: Which “pKi hV1a” value does the source give for `C/C(=C1/SC(N2CCC3(CC2)OCc2ccccc23)=NC1=O)C1CCCC1` [Example 43, (5E/Z)-5-(1-cyclopentylethylidene)-2-(1′H,3H-spiro[2-benzofuran-1,4′-piperidin]-1′-yl)-1,3-thiazol-4(5H)-one] here?
Answer: Its value is 8.8.

Question: For `O=C1N=C(N2CCC3(CC2)OCc2ccccc23)S/C1=C(/CF)c1ccc(Cl)cc1` [Example 23, (5E/Z)-5-[1-(4-chlorophenyl)-2-fluoroethylidene]-2-(1′H,3H-spiro[2-benzofuran-1,4′-piperidin]-1′-yl)-1,3-thiazol-4(5H)-one], which “pKi hV1a” value is on record?
Answer: Its value is 9.4.

Question: How did the “pKi hV1a” value turn out when `C/C(=C1/SC(N2CCC3(CC2)OCc2ccncc23)=NC1=O)c1ccc(Cl)cc1` [Example 4, (5E/Z)-5-[1-(4-chlorophenyl)ethylidene]-2-(1H,1′H-spiro[furo[3,4-c]pyridine-3,4′-piperidin]-1′-yl)-1,3-thiazol-4(5H)-one and (5Z)-5-[1-(4-chlorophenyl)ethylidene]-2-(1H,1′H-spiro[furo[3,4-c]pyridine-3,4′-piperidin]-1′-yl)-1,3-thiazol-4(5H)-one] was run?
Answer: Its value is 9.0.

Question: With `[2H]C([2H])([2H])/C(=C1/SC(N2CCC3(CC2)OCc2ccccc23)=NC1=O)c1ccccc1` [Example 173, (5Z)-5-[1-phenyl(^2H3)ethylidene]-2-(1′H,3H-spiro[2-benzofuran-1,4′-piperidin]-1′-yl)-1,3-thiazol-4(5H)-one] as the molecule, how does the “pKi hV1a” value read?
Answer: Its value is 8.8.

Question: For `COC/C(=C1/SC(N2CCC3(CC2)OCc2ccccc23)=NC1=O)c1ccccc1` [Example 92, (5E)-5-(2-methoxy-1-phenylethylidene)-2-(1′H,3H-spiro[2-benzofuran-1,4′-piperidin]-1′-yl)-1,3-thiazol-4(5H)-one], which “pKi hV1a” value is on record?
Answer: The value was 9.0.

Question: With `C/C(CF)=C1/SC(N2CCC3(CC2)OCc2ccccc23)=NC1=O` [Example 51, (5E/Z)-5-(1-fluoropropan-2-ylidene)-2-(1′H,3H-spiro[2-benzofuran-1,4′-piperidin]-1′-yl)-1,3-thiazol-4(5H)-one] as the molecule, how does the “pKi hV1a” value read?
Answer: The value was 7.9.

Question: Which “pKi hV1a” value does the source give for `O=C1N=C(N2CCC3(CC2)OCc2ccccc23)S/C1=C1\C=CCC1` [Example 128, (5Z)-5-(cyclopent-2-en-1-ylidene)-2-(1′H,3H-spiro[2-benzofuran-1,4′-piperidin]-1′-yl)-1,3-thiazol-4(5H)-one] here?
Answer: The value was 7.6.

Question: `O=C1N=C(N2CCC3(CC2)OCc2ccccc23)S/C1=C1/CCCOC1` [Example 76, (5E/Z)-5-(dihydro-2H-pyran-3(4H)-ylidene)-2-(1′H,3H-spiro[2-benzofuran-1,4′-piperidin]-1′-yl)-1,3-thiazol-4(5H)-one] was tested. Which “pKi hV1a” value did it give?
Answer: Its value is 7.8.

Question: For `CCCC(CCC)=C1SC(N2CCC3(CC2)OCc2ccccc23)=NC1=O` [Example 114, 5-(heptan-4-ylidene)-2-(1′H,3H-spiro[2-benzofuran-1,4′-piperidin]-1′-yl)-1,3-thiazol-4(5H)-one], which “pKi hV1a” value is on record?
Answer: Its value is 8.9.

Question: For `CC(C)=C1SC(N2CCC3(CC2)OCc2ccccc23)=NC1=O` [Example 30, 5-(propan-2-ylidene)-2-(1′H,3H-spiro[2-benzofuran-1,4′-piperidin]-1′-yl)-1,3-thiazol-4(5H)-one], which “pKi hV1a” value is on record?
Answer: The value was 7.8.

Question: How did the “pKi hV1a” value turn out when `CC(C)(C)OC(=O)N1CCC(=C2SC(N3CCC4(CC3)OCc3ccccc34)=NC2=O)CC1` [Example 41, tert-butyl 4-[4-oxo-2-(1′H,3H-spiro[2-benzofuran-1,4′-piperidin]-1′-yl)-1,3-thiazol-5(4H)-ylidene]piperidine-1-carboxylate] was run?
Answer: The value was 7.6.

Question: `C/C(=C1\SC(N2CCC3(CC2)OC(=O)c2ccccc23)=NC1=O)c1ccccc1` [Example 157, 1′-[(5E)-4-oxo-5-(1-phenylethylidene)-4,5-dihydro-1,3-thiazol-2-yl]-3H-spiro[2-benzofuran-1,4′-piperidin]-3-one] was tested. Which “pKi hV1a” value did it give?
Answer: The value was 7.8.

Question: How did the “pKi hV1a” value turn out when `COC1CCCC/C1=C1/SC(N2CCC3(CC2)OCc2ncccc23)=NC1=O` (stereo not shown) [Example 164, (5E/Z)-5-(2-methoxycyclohexylidene)-2-(1′H,7H-spiro[furo[3,4-b]pyridine-5,4′-piperidin]-1′-yl)-1,3-thiazol-4(5H)-one] was run?
Answer: Its value is 6.9.

Question: Which “pKi hV1a” value does the source give for `O=C1N=C(N2CCC3(CC2)OCc2ccccc23)SC1=C(CF)CF` [Example 69, 5-(1,3-difluoropropan-2-ylidene)-2-(1′H,3H-spiro[2-benzofuran-1,4′-piperidin]-1′-yl)-1,3-thiazol-4(5H)-one] here?
Answer: The value was 8.0.

Question: `CC(C)/C(=C1\SC(N2CCC3(CC2)OCc2ccccc23)=NC1=O)c1ccc(Cl)nc1` [Example 132, (5E)-5-[1-(6-chloropyridin-3-yl)-2-methylpropylidene]-2-(1′H,3H-spiro[2-benzofuran-1,4′-piperidin]-1′-yl)-1,3-thiazol-4(5H)-one] was tested. Which “pKi hV1a” value did it give?
Answer: Its value is 7.8.

Question: Which “pKi hV1a” value does the source give for `CC(C)/C(=C1\SC(N2CCC3(CC2)OCc2ccccc23)=NC1=O)c1ccc(Cl)cc1` [Example 154, (5E)-5-[1-(4-chlorophenyl)-2-methylpropylidene]-2-(1′H,3H-spiro[2-benzofuran-1,4′-piperidin]-1′-yl)-1,3-thiazol-4(5H)-one] here?
Answer: The value was 7.8.

Question: Which “pKi hV1a” value does the source give for `O=C1N=C(N2CCC3(CC2)OCc2ccccc23)SC1=C1CCS(=O)(=O)CC1` [Example 60, 5-(1,1-dioxidotetrahydro-4H-thiopyran-4-ylidene)-2-(1′H,3H-spiro[2-benzofuran-1,4′-piperidin]-1′-yl)-1,3-thiazol-4(5H)-one] here?
Answer: Its value is 8.0.

Question: With `COCC(COC)=C1SC(N2CCC3(CC2)OCc2ccccc23)=NC1=O` [Example 15, 5-(1,3-dimethoxypropan-2-ylidene)-2-(1′H,3H-spiro[2-benzofuran-1,4′-piperidin]-1′-yl)-1,3-thiazol-4(5H)-one] as the molecule, how does the “pKi hV1a” value read?
Answer: The value was 8.8.

Question: `O=C1N=C(N2CCC3(CC2)OCc2ccccc23)SC1=C1Cc2ccccc2C1` [Example 161, 5-(1,3-dihydro-2H-inden-2-ylidene)-2-(1′H,3H-spiro[2-benzofuran-1,4′-piperidin]-1′-yl)-1,3-thiazol-4(5H)-one] was tested. Which “pKi hV1a” value did it give?
Answer: Its value is 7.8.

Question: With `C/C(=C1/SC(N2CCC3(CC2)OCc2ccccc23)=NC1=O)c1cccn1C` [Example 37, (5Z)-5-[1-(1-methyl-1H-pyrrol-2-yl)ethylidene]-2-(1′H,3H-spiro[2-benzofuran-1,4′-piperidin]-1′-yl)-1,3-thiazol-4(5H)-one] as the molecule, how does the “pKi hV1a” value read?
Answer: Its value is 9.1.
